By IC50 is commonly meant the point on the concentration scale where inhibition reaches its midpoint. One may read the EC50 as the midpoint of the concentration-response curve.

In one experiment the target is T1, CD73 (Homo sapiens, UniProt P21589).
T1 construct: purchased R&D system
T1 sequence (P21589 27-549): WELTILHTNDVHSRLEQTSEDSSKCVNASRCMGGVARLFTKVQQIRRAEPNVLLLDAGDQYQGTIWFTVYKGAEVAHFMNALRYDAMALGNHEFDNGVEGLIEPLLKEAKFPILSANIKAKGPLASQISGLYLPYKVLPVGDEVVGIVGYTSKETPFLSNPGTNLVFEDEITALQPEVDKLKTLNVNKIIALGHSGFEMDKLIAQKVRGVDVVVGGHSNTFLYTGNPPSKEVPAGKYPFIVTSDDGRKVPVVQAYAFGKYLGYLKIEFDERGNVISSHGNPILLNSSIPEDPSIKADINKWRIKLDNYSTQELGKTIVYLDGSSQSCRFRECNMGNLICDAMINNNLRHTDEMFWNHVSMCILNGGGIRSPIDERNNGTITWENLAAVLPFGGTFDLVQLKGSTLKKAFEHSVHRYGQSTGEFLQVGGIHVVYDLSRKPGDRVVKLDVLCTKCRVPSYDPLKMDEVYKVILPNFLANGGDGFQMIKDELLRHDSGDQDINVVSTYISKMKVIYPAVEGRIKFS
The format is biochemical. As to conditions: 1 mM NaH2PO4 in enzyme buffer, final AMP 15 uM, final CD73 0.3 nM.

The target of experiment [1] is T2, CD73 activity in MDA-MB-231-GFP cells (Homo sapiens, UniProt P21589).
T2 construct: endogenous in cells; host or cells: MDA-MB-231-GFP cells
T2 sequence (P21589 27-549): T1 sequence (P21589 27-549)
The experiment in a line: MDA-MB-231 Cell Based CD73 Activity Assay (DMEM). To be noted: 3000 cells per well, DMEM medium with 10% human plasma, overnight compound treatment, AMP 200 uM.

Turning to `CN(C)C(=O)c1cn2nc(-c3c[nH]c(=O)[nH]c3=O)cc([C@H]3C[C@@H]3c3ccc(F)cc3)c2n1` (racemic) [Example 197, 6-(2,4-dioxo-1H-pyrimidin-5-yl)-8-[(1S,2S)-2-(4-fluorophenyl)cyclopropyl]-N,N-dimethyl-imidazo[1,2-b]pyridazine-2-carboxamide], at CD73, half-maximal inhibition (IC50) was put at 11 nM. The compound further registered an EC50 in experiment [1] of 30.2 nM.

In turn, `N#Cc1cc([C@H]2C[C@@H]2c2cc(-c3c[nH]c(=O)[nH]c3=O)nn3ccnc23)ccc1C(F)(F)F` (racemic) [Example 412, 5-((2S,2S)-2-(6-(2,4-dioxo-1,2,3,4-tetrahydropyrimidin-5-yl)imidazo[1,2-b]pyridazin-8-yl)cyclopropyl)-2-(trifluoromethyl)benzonitrile] had an EC50 in experiment [1] of 38.3 nM.

The compound `N#Cc1ccc([C@H]2C[C@@H]2c2cc(-c3c[nH]c(=O)[nH]c3=O)nn3ccnc23)cc1OC(F)(F)F` (racemic) [Example 413, 4-((2S,2S)-2-(6-(2,4-dioxo-1,2,3,4-tetrahydropyrimidin-5-yl)imidazo[1,2-b]pyridazin-8-yl)cyclopropyl)-2-(trifluoromethoxy)benzonitrile] yielded an EC50 in experiment [1] of 34.6 nM.

Compound `N#Cc1cc([C@H]2C[C@@H]2c2cc(-c3c[nH]c(=O)[nH]c3=O)nn3ccnc23)ccc1OC(F)(F)F` (racemic) [Example 414, 5-((2S,2S)-2-(6-(2,4-dioxo-1,2,3,4-tetrahydropyrimidin-5-yl)imidazo[1,2-b]pyridazin-8-yl)cyclopropyl)-2-(trifluoromethoxy)benzonitrile] had an EC50 in experiment [1] of 43.8 nM.

`O=c1[nH]cc(-c2cc(N3CC(Oc4ccc(C(F)(F)F)cn4)C(F)(F)C3)c3ncnn3n2)c(=O)[nH]1` (racemic) [Example 432, 5-(8-(3,3-difluoro-4-((5-(trifluoromethyl)pyridin-2-yl)oxy)pyrrolidin-1-yl)-[1,2,4]triazolo[1,5-b]pyridazin-6-yl)pyrimidine-2,4(1H,3H)-dione]: the half-maximal effective concentration (EC50) in experiment [1] stood at 2.58 nM.

`O=c1[nH]cc(-c2cc(N3CCC(CC(F)(F)F)C3)c3nccn3n2)c(=O)[nH]1` (racemic) [Example 452, 5-(8-(3-(2,2,2-trifluoroethyl)pyrrolidin-1-yl)imidazo[1,2-b]pyridazin-6-yl)pyrimidine-2,4(1H,3H)-dione] displayed an EC50 in experiment [1] of 94.8 nM. This EC50 lies about 37-fold higher than the previous one.

As to `O=c1[nH]cc(-c2cc(N3CCC(CC(F)F)C3)c3nccn3n2)c(=O)[nH]1` (racemic) [Example 453, 5-(8-(3-(2,2-difluoroethyl)pyrrolidin-1-yl)imidazo[1,2-b]pyridazin-6-yl)pyrimidine-2,4(1H,3H)-dione], the midpoint of the response in experiment [1], the EC50, lay at 112 nM.

In experiment [1], `O=c1[nH]cc(-c2cc([C@H]3C[C@@H]3c3nc4ccccc4[nH]3)c3nccn3n2)c(=O)[nH]1` (racemic) [Example 461, 5-(8-((1S,2S)-2-(1H-benzo[d]imidazol-2-yl)cyclopropyl)imidazo[1,2-b]pyridazin-6-yl)pyrimidine-2,4(1H,3H)-dione] came in with an EC50 of 11.6 nM.

`O=c1[nH]cc(-c2cc([C@H]3C[C@@H]3c3ccc(F)c(F)c3F)c3nccn3n2)c(=O)[nH]1` (racemic) [Example 464, 5-(8-((2S,2S)-2-(2,3,4-trifluorophenyl)cyclopropyl)imidazo[1,2-b]pyridazin-6-yl)pyrimidine-2,4(1H,3H)-dione] registered a 50% effective concentration (EC50) in experiment [1] of 16.2 nM. This EC50 and that of the compound before are within 1.5-fold of each other.

In experiment [1], `N#Cc1ccc(F)c([C@H]2C[C@@H]2c2cc(-c3c[nH]c(=O)[nH]c3=O)nn3ccnc23)c1` (racemic) [Example 466, 3-((2S,2S)-2-(6-(2,4-dioxo-1,2,3,4-tetrahydropyrimidin-5-yl)imidazo[1,2-b]pyridazin-8-yl)cyclopropyl)-4-fluorobenzonitrile] registered an EC50 of 20 nM.

As to `O=c1[nH]cc(-c2cc([C@H]3C[C@@H]3c3c(F)ccc(F)c3F)c3nccn3n2)c(=O)[nH]1` (racemic) [Example 468, 5-(8-((2S,2S)-2-(2,3,6-trifluorophenyl)cyclopropyl)imidazo[1,2-b]pyridazin-6-yl)pyrimidine-2,4(1H,3H)-dione], the response in experiment [1] was half-maximal at 13.3 nM (EC50).

Compound `O=c1[nH]cc(-c2cc([C@H]3C[C@@H]3c3cc4c(cn3)cnn4CC(F)(F)F)c3ncc(Cl)n3n2)c(=O)[nH]1` (racemic) [Example 471, 5-(3-chloro-8-((2S,2S)-2-(1-(2,2,2-trifluoroethyl)-1H-pyrazolo[4,3-c]pyridin-6-yl)cyclopropyl)imidazo[1,2-b]pyridazin-6-yl)pyrimidine-2,4(1H,3H)-dione] showed an EC50 in experiment [1] of 0.24 nM.

As to `CC1(C)C(=O)N(CC(F)(F)F)c2cc([C@H]3C[C@@H]3c3cc(-c4c[nH]c(=O)[nH]c4=O)nn4ccnc34)ncc21` (racemic) [Example 718, 5-[8-[(1S,2S)-2-[3,3-dimethyl-2-oxo-1-(2,2,2-trifluoroethyl)pyrrolo[3,2-c]pyridin-6-yl]cyclopropyl]imidazo[1,2-b]pyridazin-6-yl]-1H-pyrimidine-2,4-dione], a half-maximal effect in experiment [1] (EC50) was put at 0.33 nM.

With `O=c1[nH]cc(-c2cc([C@H]3C[C@@H]3c3cc(OCC(F)(F)F)c4ncccc4c3)c3nccn3n2)c(=O)[nH]1` (racemic) [Example 732, 5-(8-((2S,2S)-2-(8-(2,2,2-trifluoroethoxy)quinolin-6-yl)cyclopropyl)imidazo[1,2-b]pyridazin-6-yl)pyrimidine-2,4(1H,3H)-dione], the EC50 in experiment [1] came to 2.52 nM. This EC50 is about 7.6-fold higher than that of the compound before.

`O=C1N(CC2(F)CC2)c2cc([C@H]3C[C@@H]3c3cc(-c4c[nH]c(=O)[nH]c4=O)nn4c(F)cnc34)ccc2C12CC2` (racemic) [Example 735, 5-(3-fluoro-8-((2S,2S)-2-(1′-((1-fluorocyclopropyl)methyl)-2′-oxospiro[cyclopropane-1,3′-indolin]-6′-yl)cyclopropyl)imidazo[1,2-b]pyridazin-6-yl)pyrimidine-2,4(1H,3H)-dione] came in with an EC50 in experiment [1] of 0.38 nM.

In experiment [1], `O=C1N(CC(F)(F)F)c2cc([C@H]3C[C@@H]3c3cc(-c4c[nH]c(=O)[nH]c4=O)nn4ccnc34)c(F)cc2C12CC2` (racemic) [Example 748, 5-(8-((2S,2S)-2-(5′-fluoro-2′-oxo-1′-(2,2,2-trifluoroethyl)spiro[cyclopropane-1,3′-indolin]-6′-yl)cyclopropyl)imidazo[1,2-b]pyridazin-6-yl)pyrimidine-2,4(1H,3H)-dione] returned an EC50 of 1.76 nM.

In experiment [1], `O=C(c1ccc([C@H]2C[C@@H]2c2cc(-c3c[nH]c(=O)[nH]c3=O)nn3c(F)cnc23)cc1)N1CC(F)(F)C1` (single isomer, unassigned) [Example 313] yielded an EC50 of 9.78 nM. Compared with the last compound, the EC50 is about 5.6-fold higher.

For `O=c1[nH]cc(-c2cc([C@H]3C[C@@H]3c3cnn(C(F)F)c3)c3ncc(F)n3n2)c(=O)[nH]1` (single isomer, unassigned) [Example 371], in experiment [1], it took 17.9 nM to reach a half-maximal effect (EC50). Compared with the last compound, the EC50 is about 1.8-fold higher.

In experiment [1], `O=c1[nH]cc(-c2cc([C@H]3C[C@@H]3c3ccc(OC(F)(F)F)cn3)c3nccn3n2)c(=O)[nH]1` (single isomer, unassigned) [Example 373] came in with an EC50 of 9.61 nM.

Compound `O=C1N(CC(F)(F)F)c2cc([C@H]3C[C@@H]3c3cc(-c4c[nH]c(=O)[nH]c4=O)nn4ccnc34)ccc2C12CC2` (single isomer, unassigned) [Example 391] yielded a concentration giving a half-maximal response (EC50) in experiment [1] of 0.1 nM.

As to `O=C1N(CC(F)(F)F)c2cc([C@H]3C[C@@H]3c3cc(-c4c[nH]c(=O)[nH]c4=O)nn4c(Cl)cnc34)ccc2C12CC2` (single isomer, unassigned) [Example 740], a half-maximal effect in experiment [1] (EC50) was put at 0.28 nM.

In the case of `O=C1N(CC(F)(F)F)c2cc([C@H]3C[C@@H]3c3cc(-c4c[nH]c(=O)[nH]c4=O)nn4c(Cl)c(Cl)nc34)ccc2C12CC2` (single isomer, unassigned) [Example 741], in experiment [1], the EC50 is 0.68 nM.

As for `O=c1[nH]cc(-c2cc(N3CCC4(C3)CC4(F)F)c3nccn3n2)c(=O)[nH]1` (stereo not shown) [Example 192], on CD73, the IC50 was 6.41 nM. In other words, the single-digit nanomolar range.

`O=c1[nH]cc(-c2cc(N3CC(OCC(F)(F)F)C(F)(F)C3)c3nccn3n2)c(=O)[nH]1` (stereo not shown) [Example 203] gave an IC50 against CD73 of 3.03 nM.

As for `COC(=O)[C@H]1[C@@H]2CN(c3cc(-c4c[nH]c(=O)[nH]c4=O)nn4ccnc34)C[C@@H]21` [Example 314, methyl (1R,5S,6r)-3-(6-(2,4-dioxo-1,2,3,4-tetrahydropyrimidin-5-yl)imidazo[1,2-b]pyridazin-8-yl)-3-azabicyclo[3.1.0]hexane-6-carboxylate], at CD73, the IC50 is above 250 nM.

Consider `O=c1[nH]cc(-c2cc([C@H]3C[C@@H]3c3cc4c(cn3)cnn4CC(F)(F)F)c3ncc(F)n3n2)c(=O)[nH]1` [Example 611, 5-(3-fluoro-8-((2S,2S)-2-(1-(2,2,2-trifluoroethyl)-1H-pyrazolo[4,3-c]pyridin-6-yl)cyclopropyl)imidazo[1,2-b]pyridazin-6-yl)pyrimidine-2,4(1H,3H)-dione], for which it took 0.07 nM to reach a half-maximal effect in experiment [1] (EC50). That is a picomolar value.

With `O=c1[nH]cc(-c2cc(N3C[C@H]4CC[C@@H]3C4)c3nccn3n2)c(=O)[nH]1` [Example 642, 5-(8-((1R,4S)-2-azabicyclo[2.2.1]heptan-2-yl)imidazo[1,2-b]pyridazin-6-yl)pyrimidine-2,4(1H,3H)-dione], the EC50 in experiment [1] was 154 nM. This EC50 is about 2200-fold higher than that of the compound before.

(Values after US12110294B2, “CD73 compounds” (Gilead Sciences, Inc., priority 2020, dated 2024).)
